Assay results as given in PubChem BioAssay (NCI).
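Dose response: 5 concentrations. Exposure: 48 h. Format: 96-well plates. Endpoint: linear interpolation; highest concentration if not reached. TGI marks complete inhibition of growth.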

Tests used:
Test in all cases: NCI anticancer screen, dose series, 48 h
[1] = test system: NCI-H226 lung
[2] = test system: EKVX NSCLC
[3] = test system: NCI/ADR-RES ovarian
[4] = test system: SF-295 CNS
[5] = test system: MDA-MB-435
[6] = test system: SK-MEL-5 melanoma
[7] = test system: IGROV1 ovarian
[8] = test system: 786-0 renal
[9] = test system: OVCAR-8 ovarian
[10] = test system: HS 578T breast
[11] = test system: RXF 393 renal

Row | Structure (SMILES) | TGI [1] | TGI [2] | TGI [3] | TGI [4] | TGI [5] | TGI [6] | TGI [7] | TGI [8] | TGI [9] | TGI [10] | TGI [11]
1 | Cn1c2ccccc2c2c3c(c4c5ccccc5n(C)c4c21)C(=O)N(c1ccccc1)C3=O | > 100 µM | > 100 µM | > 100 µM | > 100 µM | > 100 µM | > 100 µM | > 100 µM | > 100 µM | > 100 µM | – | –
2 | Fc1ccc2c(c1)nc1n2C(c2c(F)cccc2F)SC1 (configuration not stated) | > 100 µM | > 100 µM | > 100 µM | > 100 µM | > 100 µM | 68.3 µM | > 100 µM | > 100 µM | > 100 µM | > 100 µM | > 100 µM
3 | CC(C)(C)OC(=O)NNCC(O)COc1ccccc1 (configuration not stated) | > 100 µM | > 100 µM | > 100 µM | > 100 µM | > 100 µM | > 100 µM | > 100 µM | > 100 µM | > 100 µM | > 100 µM | > 100 µM
4 | COc1ccc(C2NC(N)=C(C#N)C3=C2C(C)CCC3)cc1OC (configuration not stated) | > 100 µM | > 100 µM | > 100 µM | > 100 µM | > 100 µM | > 100 µM | > 100 µM | > 100 µM | > 100 µM | > 100 µM | > 100 µM
5 | O=c1[nH]c2ccc(C(F)(F)F)cc2nc1C(F)(F)F | 89 µM | > 100 µM | 70.7 µM | > 100 µM | 78.8 µM | 35.5 µM | 95.3 µM | > 100 µM | 77 µM | – | 36.3 µM
6 | NS(=O)(=O)c1ccc(NCc2nc3ccccc3[nH]2)cc1 | > 100 µM | > 100 µM | > 100 µM | > 100 µM | > 100 µM | > 100 µM | > 100 µM | > 100 µM | > 100 µM | > 100 µM | > 100 µM
7 | Cc1cc(O)c(C(C)C)cc1C(=S)Nc1ccc(Cl)cc1 | – | 25.3 µM | 34.5 µM | 28.3 µM | 23.1 µM | 23.8 µM | 15.9 µM | 27.3 µM | 24.2 µM | 28.9 µM | –
8 | Nc1ncc2c(n1)-c1ccccc1OC2 | > 100 µM | > 100 µM | > 100 µM | > 100 µM | – | > 100 µM | > 100 µM | – | > 100 µM | – | > 100 µM
9 | CC(C)=CCC[C@@H](C)C1=C(O)C(Nc2ccccc2)=C(C)C(=O)C1=O | > 73.4 µM | > 100 µM | 45.6 µM | 32.4 µM | > 100 µM | 55.6 µM | > 100 µM | > 100 µM | > 100 µM | > 100 µM | 60.7 µM
10 | Cc1nccn1S(=O)(=O)c1ccc(Cl)cc1 | > 100 µM | > 100 µM | > 100 µM | > 100 µM | 48.8 µM | > 100 µM | > 100 µM | > 100 µM | > 100 µM | > 100 µM | > 100 µM
